Results as given in ChEMBL document CHEMBL5356962, “Synthesis, activity, and their relationships of 2,4-diaminonicotinamide derivatives as EGFR inhibitors targeting C797S mutation” (Bioorg Med Chem Lett, 2024).

Columns and labels:
[1] = target: Epidermal growth factor receptor (Homo sapiens, UniProt P00533); assay: Inhibition of wild-type EGFR (unknown origin) phosphorylation
[2] = target: Epidermal growth factor receptor (Homo sapiens, UniProt P00533, C797S/L858R/T790M); assay: Inhibition of EGFR L858R/T790M/C797S mutant (unknown origin) phosphorylation
Chain of Epidermal growth factor receptor (Homo sapiens, UniProt P00533, C797S/L858R/T790M) (P00533 25-1210 T790M/C797S/L858R limits assumed): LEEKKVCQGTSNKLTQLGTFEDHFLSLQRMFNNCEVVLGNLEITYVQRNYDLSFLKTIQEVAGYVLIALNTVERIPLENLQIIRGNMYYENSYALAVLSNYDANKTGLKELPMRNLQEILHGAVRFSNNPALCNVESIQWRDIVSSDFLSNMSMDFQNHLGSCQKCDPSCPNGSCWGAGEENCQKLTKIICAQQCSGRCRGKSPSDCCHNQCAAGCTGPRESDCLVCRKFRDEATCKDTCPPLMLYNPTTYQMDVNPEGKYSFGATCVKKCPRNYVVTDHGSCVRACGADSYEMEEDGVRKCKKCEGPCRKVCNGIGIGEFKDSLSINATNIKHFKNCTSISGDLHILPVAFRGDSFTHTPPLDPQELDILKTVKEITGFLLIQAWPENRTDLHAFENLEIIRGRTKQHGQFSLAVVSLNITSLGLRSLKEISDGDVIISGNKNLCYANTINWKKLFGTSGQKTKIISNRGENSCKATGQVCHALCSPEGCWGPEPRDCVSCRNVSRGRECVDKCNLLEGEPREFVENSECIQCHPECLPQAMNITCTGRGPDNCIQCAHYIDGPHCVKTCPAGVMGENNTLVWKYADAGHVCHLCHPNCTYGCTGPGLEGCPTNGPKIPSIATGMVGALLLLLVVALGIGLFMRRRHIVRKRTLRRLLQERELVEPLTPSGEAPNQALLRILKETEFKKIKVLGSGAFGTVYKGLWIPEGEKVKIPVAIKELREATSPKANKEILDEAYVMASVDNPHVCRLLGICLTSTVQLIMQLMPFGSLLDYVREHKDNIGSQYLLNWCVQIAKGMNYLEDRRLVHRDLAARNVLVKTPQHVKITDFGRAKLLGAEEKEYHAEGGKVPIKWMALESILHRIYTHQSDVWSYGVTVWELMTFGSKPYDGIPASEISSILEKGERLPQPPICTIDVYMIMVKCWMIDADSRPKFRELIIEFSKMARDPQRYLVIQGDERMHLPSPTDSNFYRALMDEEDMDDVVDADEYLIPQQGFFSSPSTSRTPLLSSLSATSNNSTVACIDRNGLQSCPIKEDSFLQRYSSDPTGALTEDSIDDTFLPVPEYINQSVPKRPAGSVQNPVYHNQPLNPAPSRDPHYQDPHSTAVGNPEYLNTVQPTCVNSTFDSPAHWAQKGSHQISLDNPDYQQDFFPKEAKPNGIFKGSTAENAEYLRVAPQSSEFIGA

[3] = target: Epidermal growth factor receptor (Homo sapiens, UniProt P00533, C797S/EX19DEL/T790M); assay: Inhibition of EGFR Del19/T790M/C797S mutant (unknown origin) phosphorylation
Chain of Epidermal growth factor receptor (Homo sapiens, UniProt P00533, C797S/EX19DEL/T790M) (P00533 whole entry, looked up, stated change not applied): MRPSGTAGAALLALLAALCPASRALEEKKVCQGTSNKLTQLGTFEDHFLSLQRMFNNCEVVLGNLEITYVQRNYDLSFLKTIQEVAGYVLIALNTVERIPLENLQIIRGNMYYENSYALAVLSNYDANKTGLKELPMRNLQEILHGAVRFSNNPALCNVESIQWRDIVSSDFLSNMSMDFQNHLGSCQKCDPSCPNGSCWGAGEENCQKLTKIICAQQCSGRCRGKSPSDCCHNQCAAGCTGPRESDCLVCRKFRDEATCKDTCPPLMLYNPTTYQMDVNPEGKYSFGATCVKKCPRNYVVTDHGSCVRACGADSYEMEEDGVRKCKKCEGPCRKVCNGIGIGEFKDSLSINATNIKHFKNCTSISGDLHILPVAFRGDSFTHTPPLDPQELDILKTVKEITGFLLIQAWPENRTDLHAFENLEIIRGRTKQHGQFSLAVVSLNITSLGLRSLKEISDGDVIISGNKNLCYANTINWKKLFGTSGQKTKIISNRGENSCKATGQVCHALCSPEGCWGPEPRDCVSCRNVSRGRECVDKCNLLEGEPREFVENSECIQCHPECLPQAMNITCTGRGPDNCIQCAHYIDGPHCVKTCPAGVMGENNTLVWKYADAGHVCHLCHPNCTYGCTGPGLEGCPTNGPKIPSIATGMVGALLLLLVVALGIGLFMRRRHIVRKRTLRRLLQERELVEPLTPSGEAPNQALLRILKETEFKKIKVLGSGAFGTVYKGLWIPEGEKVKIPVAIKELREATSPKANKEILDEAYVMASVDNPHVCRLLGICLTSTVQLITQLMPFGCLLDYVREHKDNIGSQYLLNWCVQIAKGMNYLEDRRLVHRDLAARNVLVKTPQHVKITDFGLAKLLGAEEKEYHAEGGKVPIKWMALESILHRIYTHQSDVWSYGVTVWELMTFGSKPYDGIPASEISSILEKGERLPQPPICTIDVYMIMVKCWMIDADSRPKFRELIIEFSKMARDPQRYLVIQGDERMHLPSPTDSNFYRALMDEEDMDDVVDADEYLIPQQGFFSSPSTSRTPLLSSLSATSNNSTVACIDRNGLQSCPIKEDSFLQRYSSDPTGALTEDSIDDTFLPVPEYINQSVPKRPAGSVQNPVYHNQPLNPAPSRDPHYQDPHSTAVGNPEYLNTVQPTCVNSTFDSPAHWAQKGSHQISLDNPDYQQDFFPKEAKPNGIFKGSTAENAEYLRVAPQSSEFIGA

[4] = test system: BaF3; assay: Inhibition of cell proliferation of mouse BaF3 cells expressing EGFR Del19/T790M/C797S mutant (unknown origin); assay type: functional
[5] = test system: BaF3; assay: Inhibition of cell proliferation of mouse BaF3 cells expressing wild-type EGFR (unknown origin); assay type: functional
[6] = test system: BaF3; assay: Inhibition of cell proliferation of mouse BaF3 cells expressing EGFR L858R/T790M/C797S mutant (unknown origin); assay type: functional

Chain of Epidermal growth factor receptor (Homo sapiens, UniProt P00533) (P00533 whole entry): as the sequence (P00533 whole entry, looked up, stated change not applied) above

Compound | IC50 [1] | IC50 [2] | IC50 [3] | GI50 ([4]; Mus musculus, BaF3) | GI50 ([5]; Mus musculus, BaF3) | GI50 ([6]; Mus musculus, BaF3) | GI50 [4] | GI50 [5] | GI50 [6]
CC[C@H](C)Nc1cc(Nc2ccnc(-c3cnn(S(=O)(=O)C4CC4)c3)n2)ncc1C(=O)N(C)C | > 5000 nM | 300 nM | 450 nM | – | – | – | – | – | –
CC[C@H](C)Nc1cc(Nc2ccnc(-c3cnn(S(=O)(=O)C4CC4)c3)n2)ncc1C(=O)NCCN(C)C | 265 nM | 10 nM | 11 nM | 193 nM | 1220 nM | 446 nM | – | – | –
CC(C)Oc1cc(Nc2ccnc(-c3cnn(S(=O)(=O)C4CC4)c3)n2)ncc1C(=O)N1CC(C(C)(C)O)C1 | > 5000 nM | > 5000 nM | > 5000 nM | – | – | – | – | – | –
CC(C)Nc1cc(Nc2ccnc(-c3cnn(S(=O)(=O)C4CC4)c3)n2)ncc1C(=O)N1CC(C(C)(C)O)C1 | 552 nM | 51 nM | 72 nM | – | – | – | – | – | –
CC[C@H](C)Nc1cc(Nc2ccnc(-c3cnn(S(=O)(=O)C4CC4)c3)n2)ncc1C(=O)NCCC(F)F | – | – | – | 35 nM | 1080 nM | 81 nM | – | – | –
CC[C@H](C)Nc1cc(Nc2ccnc(-c3cnn(S(=O)(=O)C4CC4)c3)n2)ncc1C(=O)NCCCF | 55 nM | 3.7 nM | 4.5 nM | 56 nM | 1050 nM | 129 nM | – | – | –
CC[C@H](C)Nc1cc(Nc2ccnc(-c3cnn(S(=O)(=O)C4CC4)c3)n2)ncc1C(=O)NC | 45 nM | 3.6 nM | 3.6 nM | 68 nM | 927 nM | 163 nM | – | – | –
CCC(=O)c1cnc(Nc2ccnc(-c3cnn(S(=O)(=O)C4CC4)c3)n2)cc1N[C@@H](C)CC | 212 nM | 11 nM | 13 nM | – | – | – | – | – | –
CCNC(=O)c1cnc(Nc2ccnc(-c3cnn(S(=O)(=O)C4CC4)c3)n2)cc1N[C@@H](C)CC | 77 nM | 5.6 nM | 6 nM | 72 nM | 1270 nM | 191 nM | – | – | –
CCNS(=O)(=O)c1cnc(Nc2ccnc(-c3cnn(S(=O)(=O)C4CC4)c3)n2)cc1N[C@@H](C)CC | > 5000 nM | 4880 nM | > 5000 nM | – | – | – | – | – | –
CC[C@H](C)Nc1cc(Nc2ccnc(-c3cnn(S(=O)(=O)C4CC4)c3)n2)ncc1C(=O)N1CC(C(C)(C)O)C1 | 235 nM | 22 nM | 30 nM | – | – | – | – | – | –
CC[C@H](C)Nc1cc(Nc2ccnc(-c3cnn(S(=O)(=O)C4CC4)c3)n2)ncc1C(=O)NC1CCOCC1 | – | – | – | 156 nM | 1660 nM | 452 nM | – | – | –
C=CC(=O)Nc1cc(Nc2nccc(-c3cn(C)c4ccccc34)n2)c(OC)cc1N(C)CCN(C)C [OSIMERTINIB] | – | – | – | – | – | – | 2060 nM | 107 nM | 1290 nM
